Measurements taken from patent US7091033B2, “Array of toxicologically relevant canine genes and uses thereof” (Phase-1 Molecular Toxicology, Inc., priority 2000, dated 2006).

What was measured:
Assay in all cases: Canine array gene expression profile of kidney from dog dosed with erythromycin estolate
Format in all cases: in vivo
Details in all cases: dog, kidney, 100 mg/kg
[1] = system: Cytochrome P450 2D (gene expression)
Method: (§1) For liver or kidney, about 0.15-0.20 g of tissue was weighed and placed in a 15 ml conical tube. All tissue were kept on dry ice when other samples were being weighed.
(§2) About 3.8 ml of RLT buffer was added to the tube containing the sample. The RLT buffer® from Qiagen can be prepared beforehand by adding 10 μl betamercaptoethanol to each 1.0 ml of lysis buffer needed. The tissue was homogenized using the rotor-stator homogenizer for 45 seconds. A IKA Ultra Turrax T25 homogenizer set at speed 4 with the S25N-10G dispersing element can be used. Alternatively, a Virtishear Cyclone 750W rotor/stator homogenizer (Virtis item #278077) can be used with the 7 mm microfine sawtooth shaft and generator (195 mm long with a processing range of 0.25 ml to 20 ml, item #372718). After homogenization, samples were stored on ice until all samples were homogenized. To clean the homogenizing tip between samples, the tip was first run for a few seconds in 95% ethanol and then rinsed by squirting with fresh 95% ethanol. This process was repeated with nanopure water.
(§3) The tissue lysate was centrifuged at room temperature for 10 minutes at 3700-3800 rpm in a Beckman GS-6 (or equivalent) centrifuge to remove nuclei thus reducing DNA contamination.
(§4) The supernatant of the lysate was transferred to a clean 15 ml conical tubes containing an equal volume of 70% EtOH in DEPC treated H2O, being careful not to include any of the pellet or fatty layer and mixed. About 3.8 ml of sample was added to the RNeasy spin column placed in a 15 ml centrifuge tube and centrifuged at 3000×g (3690-3710 rpm, Beckman GS-6) for 5 min. The flow-through was discarded. The remaining sample was added to the appropriate column and spun at 3000×g for 5 minutes and the flow-through was discarded.
(§5) About 4.0 ml of Buffer RW1 (Qiagen®) was added to the column and spun as before then about 2.5 ml of buffer RPE (Qiagen®) was added to column and spun at 3000×g (3690-3710 rpm, Beckman GS-6) for 2 minutes. In this example, RPE buffer was supplied as a concentrate so 4 volumes of 95% EtOH was added before use. For the midi kit, about 220 ml of 95% EtOH would be added to 55 ml of RPE. Another 2.5 ml of buffer RPE was added and spun for 5 minutes to also dry out column. The column, including the tip, should be dry for the next elution step.
(§6) For elution, the column that has the RNA bound to a clean 15 ml tube was transferred and 200 μl of RNase-free water was added to the column, allowed to sit for 1 minute, and spun for 3 minutes at 3000×g (3690-3710 rpm, Beckman GS6). This step was repeated into the same tube but with 200 μl RNase-free water.
(§7) Liver and kidney organs were isolated from a dog which was dosed with erythromycin esolate at 100 mg/kg/day for 2 or 10 days. The dog was euthanized 16 hours after the last dosage and the organs were harvested according to standard sterile procedure. RNA was isolated from the kidney and liver as detailed in Example 1. cDNA was made from the RNA and used as probes as detailed in the Examples above.

[2] = system: Cytochrome P450 3A
Method: as §1, §2, §3, §4, §5, §6, §7

[3] = system: Multidrug resistant protein-1
Method: as §1, §2, §3, §4, §5, §6, §7

**Q.** What does the source list for `CCC(=O)O[C@H]1[C@H](O[C@@H]2[C@@H](C)[C@H](O[C@H]3C[C@@](C)(OC)[C@@H](O)[C@H](C)O3)[C@@H](C)C(=O)O[C@H](CC)[C@@](C)(O)[C@H](O)[C@@H](C)C(=O)[C@H](C)C[C@@]2(C)O)O[C@H](C)C[C@@H]1N(C)C` [erythromycin estolate]?
**A.** fold induction at 10 days [1]: 1.1; fold induction at 10 days [2]: 1.3; fold induction at 10 days [3]: 1.2
